The source of these data is article PMC11079024, “Identification of a family of species-selective complex I inhibitors as potential anthelmintics” (Nature Communications, 2024).

This test has as its system H. polygyrus. Nature of the test: In vivo efficacy study in H. polygyrus mouse model. Details: species or system NMRI mice infected with H. polygyrus. The settings on record: for # Mice cured/ # Mice investigated: assessed 1 week after dosing; for Median # of living H. polygyrus worms: median (MAD) of adults collected from intestine; for Live worms in intestine (individual mouse) / Live worms in intestine, Median (+/- MAD): worm burden one week after dose; for Live worms in intestine (individual mouse): Mouse 1-4, 200 mg/kg; for Live worms in intestine, Median (+/- MAD): three to four mice. The method, then:
For in vivo testing, female 3-week old NMRI mice were purchased from Charles River, Germany. The mice were kept in individually ventilated cages (IVC) under environmentally controlled conditions (temperature: 22 °C ± 2 °C; relative humidity: 55% ± 15%; artificial lighting with a circadian cycle of 12 h of light) and had free access to water (municipal tap water supply) and rodent food. Rodents were allowed to acclimatize to the new environment for 1 week before infection. Upon 2 days of arrival, dexamethasone (0.25 mg/L) (Sigma-Aldrich, Switzerland) was added to the normal drinking water for immunosuppression to enable parasite establishment. After 1 week, mice were orally infected with 100 H. polygyrus third larval stage (L3) in 150 µL water.
Four benzimidazole derivatives were tested for in vivo efficacy. The administration of dexamethasone was stopped after 12 days post-infection and 2 days later, the selected four benzimidazole derivatives were administered by oral gavage at a single dose of 200 mg/kg to groups of each four mice. Four mice were left untreated and served as a control group. The derivatives were prepared as a Tween80 (Sigma-Aldrich, Switzerland)/ethanol (Merck, Germany) mixture dissolved in tap water (7:3:90, v/v). After 6–7 days post-dosing, the mice were euthanized with CO2 and dissected. Adult worms were removed from the intestine and counted. The worm burden reduction was calculated by comparing the number of worms found in the control animals versus the treated animals.

[1] abbreviates: single oral dose 200 mg/kg, vs untreated control mice.
Where [2] appears, read: single oral dose of 200 mg/kg, median worm counts versus control mice.

Where “and” joins values, the source holds several entries; their conditions need not be identical. Equal entries are not always repeated.

Consider `Clc1ccc(SCCCCn2cnc3ccccc32)cc1` [Compound 7925515], for which, for the setting “single oral dose 200 mg/kg”, the “# Mice cured/ # Mice investigated” value is 0/4 and the “Median # of living H. polygyrus worms” value was 100.0 (8.0). Further, the “% Worm burden reduction” value under setting [1] amounted to 19.4%. Also, the “% Worm burden reduction” value under setting [2] is given as 19.3548%. Where the note is “single oral dose of 200 mg/kg”, the “Live worms in intestine (individual mouse)” value was 113 and 100 and 92; the “Live worms in intestine, Median (+/- MAD)” value is given as 100 (8.0).
As for `CCn1c(C(C)c2ccc(CC(C)C)cc2)nc2ccccc21` (stereo not drawn) [STK951902], where the note is “single oral dose 200 mg/kg”, the “# Mice cured/ # Mice investigated” value is 0/4 and the “Median # of living H. polygyrus worms” value is recorded as 73.0 (1.5). Besides, under setting [1], the “% Worm burden reduction” value is recorded as 41.1%. The “% Worm burden reduction” value under setting [2] was 41.1290%. In addition, for the setting “single oral dose of 200 mg/kg”, the “Live worms in intestine (individual mouse)” value was 73 and 52 and 76; the “Live worms in intestine, Median (+/- MAD)” value is given as 73 (1.5).
